# Results taken from patent publication US20090022757A1, “Method for treating photoreceptor cell degeneration” (priority 2007, published 2009).
# Test system: rat retinal photoreceptor
# Test: Electroretinogram of rats treated with different MNU dosages
# Conditions: for Number of Eyes with extinguished electroretinogram: n = 10
compound,measurement,setting,value
"CN(N=O)C(N)=O [MNU, N-methyl-N-nitrosourea]",b-wave latent period of electroretinogram,"MNU 35 mg/kg, 7 d",73.37 ± 7.73
same,Number of Eyes with extinguished electroretinogram,"MNU 35 mg/kg, 7 d",0
same,a-wave amplitude of electroretinogram,"MNU 35 mg/kg, 10 d",40.76 ± 8.92
same,a-wave latent period of electroretinogram,"MNU 35 mg/kg, 10 d",17.46 ± 2.41
same,b-wave amplitude of electroretinogram,"MNU 35 mg/kg, 10 d",168.7 ± 32.14
same,b-wave latent period of electroretinogram,"MNU 35 mg/kg, 10 d",73.51 ± 5.61
same,Number of Eyes with extinguished electroretinogram,"MNU 35 mg/kg, 10 d",0
same,a-wave amplitude of electroretinogram,"MNU 40 mg/kg, 12 h",17.18 ± 15.90
same,a-wave latent period of electroretinogram,"MNU 40 mg/kg, 12 h",10.53 ± 9.18
same,b-wave amplitude of electroretinogram,"MNU 40 mg/kg, 12 h",54.40 ± 46.33
same,b-wave latent period of electroretinogram,"MNU 40 mg/kg, 12 h",41.09 ± 35.82
same,Number of Eyes with extinguished electroretinogram,"MNU 40 mg/kg, 12 h",4
same,a-wave amplitude of electroretinogram,"MNU 40 mg/kg, 1 d",9.44 ± 12.38
same,a-wave latent period of electroretinogram,"MNU 40 mg/kg, 1 d",7.02 ± 9.15
same,b-wave amplitude of electroretinogram,"MNU 40 mg/kg, 1 d",23.09 ± 30.15
same,b-wave latent period of electroretinogram,"MNU 40 mg/kg, 1 d",27.85 ± 36.29
same,Number of Eyes with extinguished electroretinogram,"MNU 40 mg/kg, 1 d",6
same,a-wave amplitude of electroretinogram,"MNU 40 mg/kg, 3 d",3.62 ± 7.66
same,a-wave latent period of electroretinogram,"MNU 40 mg/kg, 3 d",3.17 ± 6.69
same,b-wave amplitude of electroretinogram,"MNU 40 mg/kg, 3 d",12.23 ± 26.02
same,b-wave latent period of electroretinogram,"MNU 40 mg/kg, 3 d",12.20 ± 4.24
same,Number of Eyes with extinguished electroretinogram,"MNU 40 mg/kg, 3 d",8
same,a-wave amplitude of electroretinogram,"MNU 40 mg/kg, 7 d",4.23 ± 9.27
same,a-wave latent period of electroretinogram,"MNU 40 mg/kg, 7 d",3.37 ± 7.15
same,b-wave amplitude of electroretinogram,"MNU 40 mg/kg, 7 d",13.14 ± 27.85
same,b-wave latent period of electroretinogram,"MNU 40 mg/kg, 7 d",12.33 ± 26.05
same,Number of Eyes with extinguished electroretinogram,"MNU 40 mg/kg, 7 d",8
same,a-wave amplitude of electroretinogram,"MNU 40 mg/kg, 10 d",9.54 ± 12.89
same,a-wave latent period of electroretinogram,"MNU 40 mg/kg, 10 d",6.64 ± 8.61
same,b-wave amplitude of electroretinogram,"MNU 40 mg/kg, 10 d",24.25 ± 31.58
same,b-wave latent period of electroretinogram,"MNU 40 mg/kg, 10 d",27.31 ± 35.56
same,Number of Eyes with extinguished electroretinogram,"MNU 40 mg/kg, 10 d",6
same,a-wave amplitude of electroretinogram,"MNU 45 mg/kg, 12 h",0
same,a-wave latent period of electroretinogram,"MNU 45 mg/kg, 12 h",6.60 ± 9.55
same,b-wave amplitude of electroretinogram,"MNU 45 mg/kg, 12 h",0
same,b-wave latent period of electroretinogram,"MNU 45 mg/kg, 12 h",25.08 ± 8.55
same,Number of Eyes with extinguished electroretinogram,"MNU 45 mg/kg, 12 h",6
same,a-wave amplitude of electroretinogram,"MNU 45 mg/kg, 1 d",0
same,a-wave latent period of electroretinogram,"MNU 45 mg/kg, 1 d",0
same,b-wave amplitude of electroretinogram,"MNU 45 mg/kg, 1 d",0
same,b-wave latent period of electroretinogram,"MNU 45 mg/kg, 1 d",0
same,Number of Eyes with extinguished electroretinogram,"MNU 45 mg/kg, 1 d",10
same,a-wave amplitude of electroretinogram,"MNU 45 mg/kg, 3 d",0
same,a-wave latent period of electroretinogram,"MNU 45 mg/kg, 3 d",0
same,b-wave amplitude of electroretinogram,"MNU 45 mg/kg, 3 d",0
same,b-wave latent period of electroretinogram,"MNU 45 mg/kg, 3 d",0
same,Number of Eyes with extinguished electroretinogram,"MNU 45 mg/kg, 3 d",10
same,a-wave amplitude of electroretinogram,"MNU 45 mg/kg, 7 d",0
same,a-wave latent period of electroretinogram,"MNU 45 mg/kg, 7 d",0
same,b-wave amplitude of electroretinogram,"MNU 45 mg/kg, 7 d",0
same,b-wave latent period of electroretinogram,"MNU 45 mg/kg, 7 d",0
same,Number of Eyes with extinguished electroretinogram,"MNU 45 mg/kg, 7 d",10
same,a-wave amplitude of electroretinogram,"MNU 45 mg/kg, 10 d",4.89 ± 10.48
same,a-wave latent period of electroretinogram,"MNU 45 mg/kg, 10 d",6.47 ± 7.33
same,b-wave amplitude of electroretinogram,"MNU 45 mg/kg, 10 d",11.31 ± 23.93
same,b-wave latent period of electroretinogram,"MNU 45 mg/kg, 10 d",14.42 ± 30.46
same,Number of Eyes with extinguished electroretinogram,"MNU 45 mg/kg, 10 d",8
same,a-wave amplitude of electroretinogram,"MNU 50 mg/kg, 12 h",0
same,a-wave latent period of electroretinogram,"MNU 50 mg/kg, 12 h",0
same,Number of Eyes with extinguished electroretinogram,"MNU 50 mg/kg, 12 h",10
same,a-wave amplitude of electroretinogram,"MNU 50 mg/kg, 1 d",0
same,a-wave latent period of electroretinogram,"MNU 50 mg/kg, 1 d",0
same,Number of Eyes with extinguished electroretinogram,"MNU 50 mg/kg, 1 d",10
same,a-wave amplitude of electroretinogram,"MNU 50 mg/kg, 3 d",0
same,a-wave latent period of electroretinogram,"MNU 50 mg/kg, 3 d",0
same,Number of Eyes with extinguished electroretinogram,"MNU 50 mg/kg, 3 d",10
same,a-wave amplitude of electroretinogram,"MNU 50 mg/kg, 7 d",0
same,a-wave latent period of electroretinogram,"MNU 50 mg/kg, 7 d",0
same,Number of Eyes with extinguished electroretinogram,"MNU 50 mg/kg, 7 d",10
same,a-wave amplitude of electroretinogram,"MNU 50 mg/kg, 10 d",0
same,a-wave latent period of electroretinogram,"MNU 50 mg/kg, 10 d",0
same,Number of Eyes with extinguished electroretinogram,"MNU 50 mg/kg, 10 d",10
